Experimental findings from patent US12661357B2, “Use of pyrido[1,2-a]pyrimidone analogue” (GUANGZHOU JOYO PHARMATECH CO., LTD, priority 2021, dated 2026) are described below.

The subject of data set [1] is HepG2 hepatocellular cancer cells. In words: CTG cell proliferation IC50, HepG2. It is filed as cell-based. The following applies: read-out: Absolute IC50. From the text: • 2). IC50 value: the concentration of inhibitor when 50% inhibitory effect was achieved; • 3). CAL-27 and RPMI 2650: head and neck cancer cell models; HepG2: hepatocellular cancer cells. CAL-27, RPMI 2650 and HepG2 cells were purchased from ATCC, where ATCC® No. was CRL-2095™, CCL-30™, HB-8065™, respectively. • 4). Both KYSE-150 and TE-1 were esophageal cancer cell models. The KYSE-150 cell line was purchased from DSMZ (German Collection of Microorganisms and Cell Cultures), and the DSMZ No. was ACC375; the TE-1 cell line was purchased from National Collection of Authenticated Cell Cultures, catalog number: TCHu89. • 5). RPMI 1640/F12 medium was a 1:1 mixture of RPMI 1640 medium and F12 medium. • 6). The percentages in 10% FBS in Table 1 and Table 2 were volume percentages. (2) Reagents • 1). […]
• Step 1: Cells in exponential growth phase were harvested, and viable cells were counted with a Vi-Cell XR cytometer. […] After 10 minutes, the fluorescence signal value was measured with an Envision2104 plate reader. […]
Cell survival rate was calculated using the formula: Vsample/Vvehicle control×100%. Where, Vsample was the reading of the drug treatment group, and Vvehicle control was the average value of the solvent control group. GraphPad Prism 5.0 software was used, and a S-type dosage-survival rate curve was drawn using a nonlinear regression model and IC50 value was calculated.

In data set [2] the test system is stage IV gastric cancer. The experiment in a line: Gastric cancer clinical trial (Subject 4). Format: in vivo, human. The following applies: 0.7 mg then 0.4 mg once a day. As to the method:
Clinical data: Subject 4. The informed consent form was made on Nov. 5, 2019. During the baseline period, examinations such as vital signs, physical examination, ECOG physical strength score, infectious disease markers, blood routine, urine routine, coagulation function, liver function, kidney function, electrolytes, fasting blood glucose, blood lipids, 12-lead electrocardiogram were performed. The tumor was diagnosed as stage IV gastric cancer. The lesions were located in the right lobe of the liver and the right lobe of the posterior liver, and the baseline diameters were 36.4 mm and 33.1 mm. Two surgical regimens, five therapeutic regimens including chemotherapy, anti-angiogenesis inhibitors combined with chemotherapy, and immunotherapy regimens were drug-resistant for subject 4 before medication administration; from Nov. 14, 2019, tablets containing compound I were single administered with a dose of 0.7 mg once a day. The dose of 0.7 mg contained one tablet of compound I with a specification of 0.5 mg and two tablets of compound I with a specification of 0.1 mg. After the subject's safety was confirmed, one week later, from Nov. 20, 2019, the tablets containing 0.7 mg of compound I were single administered, once a day, and the dose of 0.7 mg contained one tablet of compound I with a specification of 0.5 mg and two tablets of compound I with a specification of 0.1 mg. After the first cycle, the dose was reduced to 0.4 mg, single administration, once a day, until Apr. 9, 2020 and the 0.4 mg dose contained four tablets of compound I of 0.1 mg. During the period, examinations such as vital signs, physical examination, blood routine, urine routine, coagulation function, liver function, kidney function, electrolytes, fasting blood glucose, blood lipids, 12-lead electrocardiogram were performed.

The test system of data set [3] is human-derived colorectal cancer CO-04-0032 subcutaneous xenograft tumor. The experiment in a line: In vivo efficacy, CO-04-0032 subcutaneous xenograft tumor model. More on the design: species or system BALB/c nude mice. The following applies: oral, once a day for 28 days; for Tumor volume (Day 28): mean ± SEM. From the text: Experimental purpose: Study the in vivo efficacy of the test drug on human-derived colorectal cancer CO-04-0032 subcutaneous xenograft tumor model in nude mice.
Experimental design: • (1) Animals: BALB/c nude mice, female, 6 weeks old, weighing 16-18 grams. […] CO-04-0032 was a PDX model of human-derived colon cancer independently developed by WuXi AppTec New Drug Development Co., Ltd. See Table 5 below for the experimental grouping and dosing regimen.

Read-outs that look alike come from different tables or passages of the source. Some results are limits rather than exact numbers.

As to `COCCOc1cnc2ccc(-c3cnc(OC)c(NS(=O)(=O)c4sc(C)nc4C)c3)cn2c1=O` [Compound I], the IC50 (as a rule, the concentration needed to halve the response being measured) in data set [1] (72 hours) is 574 nM; in data set [1] (Homo sapiens, HepG2, 72 h), under 1000 nM. The progression-free survival in data set [2] worked out at 5 months. The serious side effects result in data set [2] is on record as “one time of hyperglycemia above grade 3”. For the same compound, the “target lesion tumor change” value in data set [2] (second month visit (C2D28)) is −9%. Besides, the T/C (usually the result in the treated group divided by that in the control group, in per cent) turned out to be 52% in data set [3] (0.1 mg/kg), 39% in data set [3] (0.2 mg/kg), 30% in data set [3] (0.4 mg/kg) and 19% in data set [3] (0.6 mg/kg). Also, the TGI (usually the reduction of tumour growth relative to the control group) was 58% in data set [3] (0.1 mg/kg), 64% in data set [3] (0.2 mg/kg), 76% in data set [3] (0.4 mg/kg) and 90% in data set [3] (0.6 mg/kg). For the same compound, the “Tumor volume (Day 28)” value in data set [3] (0.1 mg/kg) amounted to 760 ± 136 mm^3; in data set [3] (0.2 mg/kg), 686 ± 171 mm^3; in data set [3] (0.4 mg/kg) it was 508 ± 116 mm^3; in data set [3] (0.6 mg/kg), 315 ± 74 mm^3.
